The record followed here is patent US9326666B2, “Multi-channel medical imaging system” (Beth Israel Deaconess Medical Center, priority 2002, dated 2016).

Data set [1] deals with mitochondria and/or endoplasmic reticulum. Briefly: Partitioning of dye into subcellular organelles. Format: cell-based. An excerpt:
(§1) More generally, IR-786 may be used for non-radioactive imaging of areas of ischemia in the living heart, or other visualization of the viability of other tissues.

The nature of data set [2]: Imaging of blood flow in the heart of a living laboratory rat after thoracotomy. Format: in vivo.
Description: as §1

The nature of data set [3]: In vivo early half-life of dye in blood. As to conditions: small molecule form. The text has this: This permits multiple injections during a single procedure.
The nature of data set [4]: Solubility of dye in blood. As to conditions: small molecule form.

For `CN1C(=CC=C2CCCC(C=CC3=[N+](C)c4ccccc4C3(C)C)=C2Cl)C(C)(C)c2ccccc21.[O-][Cl+3]([O-])([O-])[O-]` [IR-786], in data set [1], the “partitioning into mitochondria and/or endoplasmic reticulum” value was “partitions efficiently into mitochondria and/or endoplasmic reticulum in a concentration-dependent manner”. In addition, in data set [2], the “imaging of blood flow in the heart” value is on record as “successfully applied”.
For the molecule `CC1(C)C(/C=C/C=C/C=C/C=C2\N(CCCCS(=O)(=O)O)c3ccc4ccccc4c3C2(C)C)=[N+](CCCCS(=O)(=O)[O-])c2ccc3ccccc3c21` [Indocyanine green, indocyanine green], in data set [3], the “in vivo early half-life” value was “shorter half-life”. Also, in data set [4], the solubility in blood entry was “somewhat less soluble in blood”.
